Reference: the NIST ThermoML archive (doi:10.1021/je300504f)
“And” between values parts separate entries of the source, which are not always exact repeats. Equal entries are not always repeated. ± gives the expanded uncertainty stated by the source.

Assays:
[1] = Molar enthalpy of transition or fusion; conditions: Crystal; DSC
[2] = Crystal; for Normal melting temperature: DTA

Row | Structure (SMILES) | Molar enthalpy of transition or fusion [1] | Normal melting temperature [2] | vapor or sublimation pressure ([2]; 333.2 K) | vapor or sublimation pressure ([2]; 338.2 K) | vapor or sublimation pressure ([2]; 348.2 K) | vapor or sublimation pressure ([2]; 358.2 K) | other results
1 | FC(F)(F)C(F)(F)C(F)(F)C(F)(F)C(F)(F)C(F)(F)C(F)(F)C(F)(F)C(F)(F)C(F)(F)C(F)(F)C(F)(F)C(F)(F)C(F)(F)C(F)(F)C(F)(F)C(F)(F)C(F)(F)C(F)(F)C(F)(F)F [dotetracontafluoroeicosane] | 12 ± 0.263 kcal/mol | 163.1 ± 0.7 °C | – | – | – | – | –
2 | FC(F)(F)C(F)(F)C(F)(F)C(F)(F)C(F)(F)C(F)(F)C(F)(F)C(F)(F)C(F)(F)C(F)(F)C(F)(F)C(F)(F)F [hexacosafluorododecane] | 5.78 ± 0.311 kcal/mol | 73.5 ± 0.7 °C | 0.4571 ± 0.046 kPa | 0.7269 ± 0.073 kPa | 1.63 ± 0.16 kPa | – | vapor or sublimation pressure ([2]; 313.3 K): 0.0672 ± 0.0067 kPa; vapor or sublimation pressure ([2]; 318.2 K): 0.1074 ± 0.011 kPa; vapor or sublimation pressure ([2]; 323.2 K): 0.1781 ± 0.018 kPa; vapor or sublimation pressure ([2]; 328.2 K): 0.2832 ± 0.028 kPa; vapor or sublimation pressure ([2]; 343.2 K): 1.039 ± 0.1 kPa
3 | Fc1c(F)c(F)c(-c2c(F)c(F)c(F)c(F)c2F)c(F)c1F [perfluorobiphenyl] | 4.9 ± 0.311 kcal/mol | 66.5 ± 0.7 °C | – | – | – | – | –
4 | FC(F)(F)C(F)(F)C(F)(F)C(F)(F)C(F)(F)C(F)(F)C(F)(F)C(F)(F)C(F)(F)C(F)(F)C(F)(F)C(F)(F)C(F)(F)C(F)(F)C(F)(F)F [perfluoropentadecane] | 8.39 ± 0.191 kcal/mol | 115.0 ± 0.7 °C | 0.00776 ± 0.00078 kPa | 0.0139 ± 0.0014 kPa | 0.0408 ± 0.0041 kPa | 0.1119 ± 0.011 kPa | vapor or sublimation pressure ([2]; 312.1 K): 0.0006 ± 6e-05 kPa; vapor or sublimation pressure ([2]; 323.2 K): 0.0025 ± 0.00025 kPa; vapor or sublimation pressure ([2]; 343.3 K): 0.0238 ± 0.0024 kPa; vapor or sublimation pressure ([2]; 353.1 K): 0.0662 ± 0.0066 kPa; vapor or sublimation pressure ([2]; 363.2 K): 0.1796 ± 0.018 kPa; vapor or sublimation pressure ([2]; 368.2 K): 0.2908 ± 0.029 kPa
5 | FC(F)(F)C(F)(F)C(F)(F)C(F)(F)C(F)(F)C(F)(F)C(F)(F)C(F)(F)C(F)(F)C(F)(F)C(F)(F)C(F)(F)C(F)(F)C(F)(F)C(F)(F)C(F)(F)C(F)(F)C(F)(F)C(F)(F)C(F)(F)C(F)(F)C(F)(F)C(F)(F)C(F)(F)F [perfluorotetracosane] | 15.1 ± 0.406 kcal/mol | 188.0 ± 0.7 °C | – | – | – | – | –
6 | FC(F)(F)C(F)(F)C(F)(F)C(F)(F)C(F)(F)C(F)(F)C(F)(F)C(F)(F)C(F)(F)C(F)(F)C(F)(F)C(F)(F)C(F)(F)F [perfluorotridecane] | 6.67 ± 0.239 kcal/mol | 88.6 ± 0.7 °C | – | – | – | 1.147 ± 0.11 kPa | vapor or sublimation pressure ([2]; 313.2 K): 0.0143 ± 0.0014 kPa; vapor or sublimation pressure ([2]; 318.4 K): 0.0253 ± 0.0025 kPa; vapor or sublimation pressure ([2]; 323.4 K): 0.0443 ± 0.0044 kPa; vapor or sublimation pressure ([2]; 329.3 K): 0.0796 ± 0.008 kPa; vapor or sublimation pressure ([2]; 333.5 K): 0.1199 ± 0.012 kPa; vapor or sublimation pressure ([2]; 339.3 K): 0.2077 ± 0.021 kPa; vapor or sublimation pressure ([2]; 343.3 K): 0.297 ± 0.03 kPa; vapor or sublimation pressure ([2]; 349.2 K): 0.5217 ± 0.052 kPa; vapor or sublimation pressure ([2]; 354.1 K): 0.8357 ± 0.084 kPa
7 | FC(F)(F)C(F)(F)C(F)(F)C(F)(F)C(F)(F)C(F)(F)C(F)(F)C(F)(F)C(F)(F)C(F)(F)C(F)(F)C(F)(F)C(F)(F)C(F)(F)C(F)(F)C(F)(F)F [tetratriacontafluorohexadecane] | 9.25 ± 0.191 kcal/mol | 126.6 ± 0.7 °C | – | – | – | – | –
8 | FC(F)(F)C(F)(F)C(F)(F)C(F)(F)C(F)(F)C(F)(F)C(F)(F)C(F)(F)C(F)(F)C(F)(F)C(F)(F)C(F)(F)C(F)(F)C(F)(F)F [triacontafluorotetradecane] | 7.53 ± 0.215 kcal/mol | 102.5 °C | 0.0315 ± 0.0032 kPa | 0.053 ± 0.0053 kPa | 0.161 ± 0.016 kPa | 0.4128 ± 0.041 kPa and 0.4025 ± 0.04 kPa | vapor or sublimation pressure ([2]; 313.2 K): 0.00349 ± 0.00035 kPa; vapor or sublimation pressure ([2]; 318.2 K): 0.00664 ± 0.00066 kPa; vapor or sublimation pressure ([2]; 328.2 K): 0.0191 ± 0.0019 kPa; vapor or sublimation pressure ([2]; 343.2 K): 0.0971 ± 0.0097 kPa; vapor or sublimation pressure ([2]; 353.1 K): 0.2493 ± 0.025 kPa
